Results: US20240109918A1, “HETEROCYCLIC COMPOUNDS AND USES THEREOF” (Kumquat Biosciences Inc., priority 2022, published 2024)

How the values were obtained:
KRASG12D = target: T1, KRASG12D (Homo sapiens, UniProt P01116, G12D); test: Bio-Biochem-PPI-HTRF Ras-SOS1 interaction assay (KRAS G12D); format: biochemical; conditions: 5 nM
T1 construct: made in house; host or cells: E. coli BL21 (DE3)
Procedure, shortened: (§1)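 GST-tagged K-Ras (wt or G12D) with anti-GST-Eu(K) donor was mixed with His-hSOS1 and anti-6His-XL665 acceptor in HEPES pH 7.4/NaCl/DTT/BSA/Igepal buffer, with compound in duplicate from 10 μM down to 0.01 μM. After about 10 min or longer, HTRF 665/620 nm ratio gave IC50.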

KRASwt = target: T2, KRASwt (Homo sapiens, UniProt P01116); test: Bio-Biochem-PPI-HTRF Ras-SOS1 interaction assay (KRAS wt); format: biochemical; conditions: 5 nM
T2 construct: made in house; host or cells: E. coli BL21 (DE3)
T2 sequence (P01116 1-188 isoform P01116-2): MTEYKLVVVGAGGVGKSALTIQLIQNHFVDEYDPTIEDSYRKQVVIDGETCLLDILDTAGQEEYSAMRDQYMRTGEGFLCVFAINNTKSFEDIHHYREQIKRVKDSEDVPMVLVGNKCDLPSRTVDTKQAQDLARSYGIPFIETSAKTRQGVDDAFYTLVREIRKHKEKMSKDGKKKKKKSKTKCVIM
Procedure, shortened: as §1

T1 sequence (P01116 1-188 isoform P01116-2 G12D): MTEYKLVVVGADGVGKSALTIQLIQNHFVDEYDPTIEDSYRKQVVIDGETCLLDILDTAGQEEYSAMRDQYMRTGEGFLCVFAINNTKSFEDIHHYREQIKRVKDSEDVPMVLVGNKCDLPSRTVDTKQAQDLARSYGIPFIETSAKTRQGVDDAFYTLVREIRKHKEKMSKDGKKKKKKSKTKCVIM

| SMILES | IC50 (KRASG12D) [µM] | IC50 (KRASwt) [µM] |
| --- | --- | --- |
| N#Cc1c(N)sc2c(F)ccc(-c3c(Cl)cc4c(N5CCCCC6(CNC6)C5)nc(OC[C@@]56CCCN5C[C@H](F)C6)nc4c3F)c12 [compound 149, 2-amino-4-(6-chloro-8-fluoro-2-(((2R,7aS)-2-fluorotetrahydro-1H-pyrrolizin-7a(5H)-yl)methoxy)-4-(2,6-diazaspiro[3.6]decan-6-yl)quinazolin-7-yl)-7-fluorobenzo[b]thiophene-3-carbonitrile] | < 5 | < 5 |
| N#Cc1c(N)sc2c(F)ccc(-c3c(Cl)cc4c(N5CC(F)(F)OC6(CN(C(=O)C7CC7(F)F)C6)C5)nc(OC[C@@]56CCCN5C[C@H](F)C6)nc4c3F)c12 (stereo partly drawn) [compound 167, 2-amino-4-(6-chloro-4-(2-(2,2-difluorocyclopropane-1-carbonyl)-6,6-difluoro-5-oxa-2,8-diazaspiro [3.5]nonan-8-yl)-8-fluoro-2-(((2R,7aS)-2-fluorotetrahydro-1H-pyrrolizin-7a(5H)-yl)methoxy)quinazolin-7-yl)-7-fluorobenzo[b] thiophene-3-carbonitrile] | < 5 | < 5 |
| N#Cc1c(N)sc2c(F)ccc(-c3c(Cl)cc4c(N5CCCCC6(CN(C(=O)C7CCCN7)C6)C5)nc(OC[C@@]56CCCN5C[C@H](F)C6)nc4c3F)c12 (stereo partly drawn) [compound 314, 2-amino-4-(6-chloro-8-fluoro-2-(((2R,7aS)-2-fluorotetrahydro-1H-pyrrolizin-7a(5H)-yl)methoxy)-4-(2-prolyl-2,6-diazaspiro[3.6]decan-6-yl)quinazolin-7-yl)-7-fluorobenzo[b]thiophene-3-carbonitrile] | < 5 | < 5 |
| N#Cc1c(N)sc2c(F)ccc(-c3c(Cl)cc4c(N5CCCCC6(CN(C(=O)/C=C/C(F)(F)F)C6)C5)nc(OC[C@@]56CCCN5C[C@H](F)C6)nc4c3F)c12 [compound 207, 2-amino-4-(6-chloro-8-fluoro-2-(((2R,7aS)-2-fluorotetrahydro-1H-pyrrolizin-7a(5H)-yl)methoxy)-4-(2-((E)-4,4,4-trifluorobut-2-enoyl)-2,6-diazaspiro [3.6]decan-6-yl)quinazolin-7-yl)-7-fluorobenzo[b]thiophene-3-carbonitrile] | < 5 | < 5 |
| Nc1nc2c(-c3c(Cl)cc4c(N5CCNCC56CNC6)nc(OCC56CCCN5C[C@H](F)C6)nc4c3F)ccc(F)c2s1 (stereo partly drawn) [compound 226, 4-(6-chloro-8-fluoro-2-(((2R)-2-fluorotetrahydro-1H-pyrrolizin-7a(5H)-yl)methoxy)-4-(2,5,8-triazaspiro[3.5]nonan-5-yl)quinazolin-7-yl)-7-fluorobenzo[d]thiazol-2-amine] | ≥ 5 | ≥ 5 |
| N#Cc1c(N)sc2c(F)ccc(-c3c(Cl)cc4c(N5CCCCC6(CN(C(=O)C78COCC7C8)C6)C5)nc(OC[C@@]56CCCN5C[C@H](F)C6)nc4c3F)c12 (stereo partly drawn) [compound 333, 4-(4-(2-(3-oxabicyclo[3.1.0]hexane-1-carbonyl)-2,6-diazaspiro [3.6]decan-6-yl)-6-chloro-8-fluoro-2-(((2R,7aS)-2-fluorotetrahydro-1H-pyrrolizin-7a(5H)-yl)methoxy)quinazolin-7-yl)-2-amino-7-fluorobenzo[b]thiophene-3-carbonitrile] | < 5 | < 5 |
| CC(=O)N1CC2(CCN(c3nc(OC[C@@]45CCCN4C[C@H](F)C5)nc4c(F)c(-c5ccc(F)c6sc(N)nc56)c(Cl)cc34)CC2)C1 [compound 165, 1-(7-(7-(2-amino-7-fluorobenzo[d]thiazol-4-yl)-6-chloro-8-fluoro-2-(((2R,7aS)-2-fluorotetrahydro-1H-pyrrolizin-7a(5H)-yl)methoxy)quinazolin-4-yl)-2,7-diazaspiro[3.5]nonan-2-yl)ethan-1-one] | < 5 | < 5 |
| N#Cc1c(N)sc2c(F)ccc(-c3c(Cl)cc4c(N5CCCCC6(CN(C(=O)CC7CC(F)(F)C7)C6)C5)nc(OC[C@@]56CCCN5C[C@H](F)C6)nc4c3F)c12 [compound 347, 2-amino-4-(6-chloro-4-(2-(2-(3,3-difluorocyclobutyl)acetyl)-2,6-diazaspiro[3.6]decan-6-yl)-8-fluoro-2-(((2R,7aS)-2-fluorotetrahydro-1H-pyrrolizin-7a(5H)-yl)methoxy)quinazolin-7-yl)-7-fluorobenzo[b]thiophene-3-carbonitrile] | < 5 | < 5 |
| N#Cc1c(N)sc2c(F)ccc(-c3c(Cl)cc4c(N5CCCCC6(CN(C(=O)C(F)Cl)C6)C5)nc(OC[C@@]56CCCN5C[C@H](F)C6)nc4c3F)c12 (stereo partly drawn) [compound 251, 2-amino-4-(6-chloro-4-(2-(2-chloro-2-fluoroacetyl)-2,6-diazaspiro [3.6]decan-6-yl)-8-fluoro-2-(((2R,7aS)-2-fluorotetrahydro-1H-pyrrolizin-7a(5H)-yl)methoxy)quinazolin-7-yl)-7-fluorobenzo[b]thiophene-3-carbonitrile] | < 5 | < 5 |
| CN(C)C/C=C/C(=O)N1CC2(CCN(c3nc(OC[C@@]45CCCN4C[C@H](F)C5)nc4c(F)c(-c5ccc(F)c6sc(N)c(C#N)c56)c(Cl)cc34)C2)C1 [compound 183, 2-amino-4-(6-chloro-4-(2-((E)-4-(dimethylamino)but-2-enoyl)-2,6-diazaspiro[3.4]octan-6-yl)-8-fluoro-2-(((2R,7aS)-2-fluorotetrahydro-1H-pyrrolizin-7a(5H)-yl)methoxy)quinazolin-7-yl)-7-fluorobenzo[b]thiophene-3-carbonitrile] | < 5 | < 5 |
| N#Cc1c(N)sc2c(F)ccc(-c3c(Cl)cc4c(N5CCC(CO)CC6(CNC6)C5)nc(OC[C@@]56CCCN5C[C@H](F)C6)nc4c3F)c12 (stereo partly drawn) [compound 214, 2-amino-4-(6-chloro-8-fluoro-2-(((2R,7aS)-2-fluorotetrahydro-1H-pyrrolizin-7a(5H)-yl)methoxy)-4-(9-(hydroxymethyl)-2,6-diazaspiro[3.6]decan-6-yl)quinazolin-7-yl)-7-fluorobenzo[b]thiophene-3-carbonitrile] | < 5 | < 5 |
| N#Cc1c(N)sc2c(F)ccc(-c3c(Cl)cc4c(N5CCC6(CC5)CN(C(=O)C5CC5(F)F)CCO6)nc(OC[C@@]56CCCN5C[C@H](F)C6)nc4c3F)c12 (stereo partly drawn) [compound 171, 2-amino-4-(6-chloro-4-(4-(2,2-difluorocyclopropane-1-carbonyl)-1-oxa-4,9-diazaspiro[5.5]undecan-9-yl)-8-fluoro-2-(((2R,7aS)-2-fluorotetrahydro-1H-pyrrolizin-7a(5H)-yl)methoxy)quinazolin-7-yl)-7-fluorobenzo[b]thiophene-3-carbonitrile] | < 5 | < 5 |
| CN1CCC[C@H]1COc1nc2c(c(N3CCCCC4(CN(C(=O)C5CC5(F)F)C4)C3)n1)CCN(c1cccc3cccc(Cl)c13)C2 (stereo partly drawn) [compound 236, (6-(7-(8-chloronaphthalen-1-yl)-2-(((S)-1-methylpyrrolidin-2-yl)methoxy)-5,6,7,8-tetrahydropyrido[3,4-d]pyrimidin-4-yl)-2,6-diazaspiro[3.6]decan-2-yl)(2,2-difluorocyclopropyl)methanone] | ≥ 5 | ≥ 5 |
| N#Cc1c(N)sc2c(F)ccc(-c3c(Cl)cc4c(N5CCCCC6(CN(C(=O)N7CCCC7)C6)C5)nc(OC[C@@]56CCCN5C[C@H](F)C6)nc4c3F)c12 [compound 231, 2-amino-4-(6-chloro-8-fluoro-2-(((2R,7aS)-2-fluorotetrahydro-1H-pyrrolizin-7a(5H)-yl)methoxy)-4-(2-(pyrrolidine-1-carbonyl)-2,6-diazaspiro[3.6]decan-6-yl)quinazolin-7-yl)-7-fluorobenzo[b]thiophene-3-carbonitrile] | < 5 | < 5 |
| N#Cc1c(N)sc2c(F)ccc(-c3c(Cl)cc4c(N5CCCC6(CN(C=O)C6)C5)nc(OC[C@@]56CCCN5C[C@H](F)C6)nc4c3F)c12 [compound 173, 2-amino-4-(6-chloro-8-fluoro-2-(((2R,7aS)-2-fluorotetrahydro-1H-pyrrolizin-7a(5H)-yl)methoxy)-4-(2-formyl-2,6-diazaspiro[3.5]nonan-6-yl)quinazolin-7-yl)-7-fluorobenzo[b]thiophene-3-carbonitrile] | < 5 | < 5 |
| N#Cc1c(N)sc2c(F)ccc(-c3c(Cl)cc4c(N5CCCCC6(CN(C(=O)CCC(F)F)C6)C5)nc(OC[C@@]56CCCN5C[C@H](F)C6)nc4c3F)c12 [compound 337, 2-amino-4-(6-chloro-4-(2-(4,4-difluorobutanoyl)-2,6-diazaspiro[3.6]decan-6-yl)-8-fluoro-2-(((2R,7aS)-2-fluorotetrahydro-1H-pyrrolizin-7a(5H)-yl)methoxy)quinazolin-7-yl)-7-fluorobenzo[b]thiophene-3-carbonitrile] | < 5 | < 5 |
| C[C@H](Oc1nc(N2CCCC3(CN(C(=O)N4CC(F)(F)C4)C3)C2)c2cc(Cl)c(-c3ccc(F)c4sc(N)c(C#N)c34)c(F)c2n1)[C@@H]1CCCN1C [compound 212, 2-amino-4-(6-chloro-4-(2-(3,3-difluoroazetidine-1-carbonyl)-2,6-diazaspiro[3.5]nonan-6-yl)-8-fluoro-2-((S)-1-((S)-1-methylpyrrolidin-2-yl)ethoxy)quinazolin-7-yl)-7-fluorobenzo[b]thiophene-3-carbonitrile] | < 5 | < 5 |
| N#Cc1c(N)sc2c(F)ccc(-c3c(Cl)cc4c(N5CCOC6(CN(C#N)C6)C5)nc(OC[C@@]56CCCN5C[C@H](F)C6)nc4c3F)c12 [compound 190, 8-(7-(2-amino-3-cyano-7-fluorobenzo[b]thiophen-4-yl)-6-chloro-8-fluoro-2-(((2R,7aS)-2-fluorotetrahydro-1H-pyrrolizin-7a(5H)-yl)methoxy)quinazolin-4-yl)-5-oxa-2,8-diazaspiro[3.5]nonane-2-carbonitrile] | < 5 | < 5 |
